Data taken from patent US20060089410A1, “Combination of chemotherapeutic drugs for increasing antitumor activity” (Titan Pharmaceuticals, Inc., priority 2002, published 2006).
Where a name gives a salt, the structure may show the parent alone. Read-outs that look alike come from different tables or passages of the source.

How the values were obtained:
[1] = tested on: SK-MES-1 squamous lung cell carcinoma cell; assay: Crystal violet microtiter assay, Pivanex then cytotoxic drug, SK-MES-1; format: cell-based; details: Pivanex 0 μM
Protocol: (§1) T24 Bladder transitional carcinoma cells, Calu-6 anaplastic lung carcinoma cells, and SK-MES-1 squamous lung cell carcinoma cell cultures were purchased from the American Type Culture Collection (Manassas, Va.). All cell lines were cultured in RPMI-1640 with 10% fetal calf serum. For culture in microtiter dishes, cells were plated at a density of 10^4 cells/well and incubated at 37° C., 5% CO2 overnight.
(§2) After overnight incubation, drugs were added to wells in quadruplicate and incubated for 6 to 96 hours in the presence or absence of the oxyalkylene containing compound. […] the media was removed, fresh media were added with cytotoxic drug, and the cultures were incubated for another 6 hours.
(§3) The wells were then washed and medium without drug was added to each well. Microtiter plates were subsequently incubated for an additional 3 days before cell density was determined by a Crystal Violet Assay. Some cultures were alternatively fixed in methanol and stained with hematoxylin and eosin (H&E) stain for 5 minutes prior to microphotography.
(§4) PIVANEX (pivaloyloxymethyl butyrate) was obtained from Titan Pharmaceuticals Inc. (South San Francisco, Calif.) and was admixed with 0.05% Intralipid™ (Fresenius Kabi, Clayton, N.C.) prior to addition to culture media. The cytotoxic drugs gemcitabine (Gemzar; Eli Lilly and Co., Indianapolis, Ind.), cisplatin (Platinol, Bristol-Myers Squibb Co., Princeton, N.J.), paclitaxel (Taxol; Bristol-Myers Squibb Co., Princeton, N.J.), and docetaxel (Taxotere, Aventis Pharmaceuticals Products, Inc., Bridgewater, N.J.) were studied with PIVANEX.
(§5) Cells in microtiter wells were rinsed with PBS and fixed in two volumes of 100% cold methanol for 5 minutes. One volume of 0.5% crystal violet in 20% methanol was added and the attached cells stained for 10 minutes. The cells were then washed and crystal violet was eluted with 0.1 N sodium citrate buffer and read on an ELISA plate reader at 490 nm.

[2] = tested on: T24 Bladder transitional carcinoma cells; assay: Crystal violet microtiter assay, Pivanex then cytotoxic drug, T24; format: cell-based, human; details: Pivanex 0 μM
Protocol: as §1, §2, §3, §4, §5

[3] = tested on: Calu-6 anaplastic lung carcinoma cells; assay: Crystal violet microtiter assay, Pivanex then cytotoxic drug, Calu-6; format: cell-based; details: Pivanex 0 μM
Protocol: as §1, §2, §3, §4, §5

[4] = tested on: H23 (NCI-H23) NSCLC cell line; assay: MTS growth inhibition assay, sequencing of Pivanex and docetaxel, H23; format: cell-based, human; details: after 24 hour exposure
[5] = tested on: H522 NSCLC cell line; assay: MTS growth inhibition assay, sequencing of Pivanex and docetaxel, H522; format: cell-based, human; details: after 24 hour exposure
Protocol: Human Non-Small Cell Lung Carcinoma Cell Lines, H522 and NCI-H23, were evaluated for growth inhibitory activity of Pivanex, alone and in combination with the standard chemotherapeutic agent, docetaxel. Cells were treated for three days with Pivanex followed by 24 hours of exposure to docetaxel or the cells were treated for 24 hours with docetaxel followed by three days of exposure to Pivanex. The cell growth inhibition was judged at the end of the 4-day experiments by a standard staining technique using MTS tetrazolium vital stain. […]
Exponentially growing cells were harvested with trypsin (0.05%)/EDTA (0.02%) and re-suspended in fresh medium containing 10% FBS. […] Absorbance was documented on a Dynex HD microplate reader at a wavelength of 490 nm. IC50 values were determined by using the Prism® GraphPad software from 3 different tests, each of which involved 4 replicates for each dose determination. The data are presented as percent growth inhibition, where 0% represents the mean value in wells to which only vehicle (0.1% DMSO) was added and was calculated as follows: % Growth Inhibition=(1−(ODtest/ODvehicle))×100 where ODtest is the optical density of the tested sample, OD vehicle is the optical density of the vehicle in which each respected drug is dissolved. […]

[6] = tested on: refractory acute myelogenous leukemia in relapse; details: child, 0.5 g/kg/day; cited from earlier work
[7] = tested on: leukemic cells isolated from myelogenous leukemic patients; details: in vitro
[8] = cited from earlier work

N.N.[Cl][Pt][Cl] [Cisplatin, cisplatin, reference compound]
SK-MES-1 non-small cancer cell viability (A^490 Absorbance) ([1]; cisplatin 10 μM): 1.562 | SK-MES-1 non-small cancer cell viability (A^490 Absorbance) ([1]; cisplatin 20 μM): 1.477 | T24 cancer cell viability (A^490 Absorbance) ([2]; cisplatin 5 μM): 0.434 | T24 cancer cell viability (A^490 Absorbance) ([2]; cisplatin 10 μM): 0.404 | T24 cancer cell viability (A^490 Absorbance) ([2]; cisplatin 20 μM): 0.25 | T24 cancer cell viability (A^490 Absorbance) ([2]; cisplatin […]): 0.486 | Calu-6 cancer cell viability (A^490 Absorbance) ([3]; cisplatin 5 μM): 0.557 | Calu-6 cancer cell viability (A^490 Absorbance) ([3]; cisplatin 10 μM): 0.328 | Calu-6 cancer cell viability (A^490 Absorbance) ([3]; cisplatin 20 μM): 0.238 | Calu-6 cancer cell viability (A^490 Absorbance) ([3]; cisplatin […]): 0.608

CC(=O)O[C@@]12CO[C@@H]1C[C@H](O)[C@@]1(C)C(=O)[C@H](O)C3=C(C)[C@@H](OC(=O)[C@H](O)[C@@H](NC(=O)OC(C)(C)C)c4ccccc4)C[C@@](O)([C@@H](OC(=O)c4ccccc4)[C@H]21)C3(C)C [Docetaxel, docetaxel]
cell growth with agent alone [4]: steep increase in H23 cell growth | cell growth with agent alone [5]: steep increase in H522 cell growth | Calu-6 cancer cell viability (A^490 Absorbance) ([3]; docetaxel 25 nM): 0.219 | Calu-6 cancer cell viability (A^490 Absorbance) ([3]; docetaxel 50 nM): 0.183 | Calu-6 cancer cell viability (A^490 Absorbance) ([3]; docetaxel 100 nM): 0.174 | Calu-6 cancer cell viability (A^490 Absorbance) ([3]; docetaxel 200 nM): 0.148

Nc1ccn([C@@H]2O[C@H](CO)[C@@H](O)C2(F)F)c(=O)n1 [Gemcitabine, gemcitabine]
T24 cancer cell viability (A^490 Absorbance) ([2]; gemcitabine 10 nM): 0.48 | T24 cancer cell viability (A^490 Absorbance) ([2]; gemcitabine 50 nM): 0.422 | Calu-6 cancer cell viability (A^490 Absorbance) ([3]; gemcitabine 25 nM): 0.587 | Calu-6 cancer cell viability (A^490 Absorbance) ([3]; gemcitabine 50 nM): 0.466 | Calu-6 cancer cell viability (A^490 Absorbance) ([3]; gemcitabine 100 nM): 0.456 | Calu-6 cancer cell viability (A^490 Absorbance) ([3]; gemcitabine 200 nM): 0.403

CC(=O)O[C@H]1C(=O)[C@@]2(C)[C@H]([C@H](OC(=O)c3ccccc3)[C@]3(O)C[C@H](OC(=O)[C@H](O)[C@@H](NC(=O)c4ccccc4)c4ccccc4)C(C)=C1C3(C)C)[C@]1(OC(C)=O)CO[C@@H]1C[C@@H]2O [Paclitaxel, paclitaxel, reference compound]
SK-MES-1 cancer cell viability (A^490 Absorbance) ([1]; paclitaxel 25 μM): 0.655 | SK-MES-1 cancer cell viability (A^490 Absorbance) ([1]; paclitaxel 50 μM): 0.627 | SK-MES-1 cancer cell viability (A^490 Absorbance) ([1]; paclitaxel 100 μM): 0.42

CCCC(=O)O [butyric acid/salts, butyric acid]
clinical response [6]: partial and temporary remission | cytotoxic and cytodifferentiating potency compared with retinoic acid, 1, 25-dihydroxy vitamin D and cytosine arabinoside [7]: most potent cytotoxic and cytodifferentiating agent | toxicity ([8]; child with refractory acute myelogenous leukemia in relapse, 0.5 g/kg/day): without detectable toxic effects | toxicity ([8]; clinical trials with high dosages): no toxicity | adverse reaction in clinical follow up ([8]; patient with acute myelogenous leukemia in relapse, 1.0 g/kg/day for 10 days and 1.5 g/kg/day for 6 days): no adverse reaction | toxicity ([8]; patients with neuroblastoma, doses of up to 10 g/day): no clinically detectable toxicity
